Measured values: US10342867B2 (priority 2014, dated 2019)
Marks after values point to notes of the source that are not given here.

Assays:
[1] = rabbit, in vivo
[2] = rabbit, in vivo; remark: listed apart in the source

What does the source list for “Monosulphate Heptadodecyl Sucrose [S12, reference compound]”?
Number of animals demonstrating a detectable adverse local reaction four weeks after the first immunization [1]: 1/6 (redness); Number of animals demonstrating a detectable adverse local reaction one week after the second immunization [1]: 2/6 (redness/swelling); Body temperature one day after the first immunization, Mean [2]: 39.4^a ° C.; Body temperature one day after the second immunization, Mean [2]: 39.7^a ° C.; rise in body temperature one day after the first and second immunization [2]: about 0.5 °C
